# US20220241402A1, “COMBINATION OF HEPATITIS B VIRUS (HBV) VACCINES AND QUINAZOLINE DERIVATIVES” (Janssen Sciences Ireland Unlimited Company, priority 2019, published 2022)
# How the values were obtained:
# human TLR7 = target: T1, human TLR7 (Homo sapiens, UniProt Q9NYK1); assay: TLR7 cellular NFκB-luc reporter assay; format: cell-based; design: unit not given here; details: lowest effective concentration; HEK293 cells transiently transfected with TLR7 and NFκB-luc, 6 h incubation
# T1 construct: expressed in transfected cells; host or cells: HEK293
# T1 sequence (Q9NYK1 27-1049): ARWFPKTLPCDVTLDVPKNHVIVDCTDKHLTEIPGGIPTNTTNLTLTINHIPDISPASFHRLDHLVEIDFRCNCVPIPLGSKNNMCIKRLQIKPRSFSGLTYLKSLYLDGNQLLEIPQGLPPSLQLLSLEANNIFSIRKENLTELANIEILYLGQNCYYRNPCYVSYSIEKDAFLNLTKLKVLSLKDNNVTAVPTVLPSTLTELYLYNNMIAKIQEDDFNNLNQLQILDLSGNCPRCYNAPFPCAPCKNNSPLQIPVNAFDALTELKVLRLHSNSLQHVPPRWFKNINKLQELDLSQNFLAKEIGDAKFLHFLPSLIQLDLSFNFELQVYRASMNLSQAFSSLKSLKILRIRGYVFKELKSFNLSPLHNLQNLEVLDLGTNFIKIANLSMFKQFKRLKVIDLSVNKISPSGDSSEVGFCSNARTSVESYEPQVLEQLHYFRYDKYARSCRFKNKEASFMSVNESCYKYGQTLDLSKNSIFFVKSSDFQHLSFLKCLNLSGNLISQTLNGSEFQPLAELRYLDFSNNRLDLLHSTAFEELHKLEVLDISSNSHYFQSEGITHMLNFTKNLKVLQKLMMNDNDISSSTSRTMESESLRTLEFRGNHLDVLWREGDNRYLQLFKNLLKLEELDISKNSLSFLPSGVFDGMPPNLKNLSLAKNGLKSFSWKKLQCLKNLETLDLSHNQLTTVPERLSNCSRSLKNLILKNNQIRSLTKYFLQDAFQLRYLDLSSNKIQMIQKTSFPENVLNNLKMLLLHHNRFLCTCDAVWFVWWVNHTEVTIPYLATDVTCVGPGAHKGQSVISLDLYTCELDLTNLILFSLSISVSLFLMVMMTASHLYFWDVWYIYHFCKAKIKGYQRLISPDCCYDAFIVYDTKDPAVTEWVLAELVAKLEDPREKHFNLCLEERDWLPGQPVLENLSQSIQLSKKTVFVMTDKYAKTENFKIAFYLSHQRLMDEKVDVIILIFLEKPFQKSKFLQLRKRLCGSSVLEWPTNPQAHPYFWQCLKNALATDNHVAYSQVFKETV
# Procedure: (§1) The ability of compounds to activate human TLR7 and/or TLR8 was assessed in a cellular reporter assay using HEK293 cells transiently transfected with a TLR7 or TLR8 expression vector and NFκB-luc reporter construct. In one instance, the TLR expression construct expresses the respective wild type sequence or a mutant sequence comprising a deletion in the second leucine-rich repeat of the TLR.
# (§2) HEK293 cells were grown in culture medium (DMEM supplemented with 10% FCS and 2 mM Glutamine). For transfection of cells in 10 cm dishes, cells were detached with Trypsin-EDTA, transfected with a mix of CMV-TLR7 or TLR8 plasmid (750 ng), NFκB-luc plasmid (375 ng) and a transfection reagent and incubated 24 h at 37° C. in a humidified 5% CO2 atmosphere. Transfected cells were then detached with Trypsin-EDTA, washed in PBS and re-suspended in medium to a density of 1.67×10^5 cells/mL. Thirty microliters of cells were then dispensed into each well in 384-well plates, where 10 μL of compound in 4% DMSO was already present. Following 6 h incubation at 37° C., 5% CO2, the luciferase activity was determined by adding 15 μl of STEADY LITE PLUS substrate (PERKIN ELMER) to each well and readout performed on a VIEWLUX ULTRAHTS microplate imager (PERKIN ELMER). Dose response curves were generated from measurements performed in quadruplicates. Lowest effective concentrations (LEC) values, defined as the concentration that induces an effect which is at least two-fold above the standard deviation of the assay, were determined for each compound.
# human TLR8 = target: T2, human TLR8 (Homo sapiens, UniProt Q9NR97); assay: TLR8 cellular NFκB-luc reporter assay; format: cell-based; design: unit not given here; details: lowest effective concentration; HEK293 cells transiently transfected with TLR8 and NFκB-luc, 6 h incubation
# T2 construct: expressed in transfected cells; host or cells: HEK293
# T2 sequence (Q9NR97 27-1041): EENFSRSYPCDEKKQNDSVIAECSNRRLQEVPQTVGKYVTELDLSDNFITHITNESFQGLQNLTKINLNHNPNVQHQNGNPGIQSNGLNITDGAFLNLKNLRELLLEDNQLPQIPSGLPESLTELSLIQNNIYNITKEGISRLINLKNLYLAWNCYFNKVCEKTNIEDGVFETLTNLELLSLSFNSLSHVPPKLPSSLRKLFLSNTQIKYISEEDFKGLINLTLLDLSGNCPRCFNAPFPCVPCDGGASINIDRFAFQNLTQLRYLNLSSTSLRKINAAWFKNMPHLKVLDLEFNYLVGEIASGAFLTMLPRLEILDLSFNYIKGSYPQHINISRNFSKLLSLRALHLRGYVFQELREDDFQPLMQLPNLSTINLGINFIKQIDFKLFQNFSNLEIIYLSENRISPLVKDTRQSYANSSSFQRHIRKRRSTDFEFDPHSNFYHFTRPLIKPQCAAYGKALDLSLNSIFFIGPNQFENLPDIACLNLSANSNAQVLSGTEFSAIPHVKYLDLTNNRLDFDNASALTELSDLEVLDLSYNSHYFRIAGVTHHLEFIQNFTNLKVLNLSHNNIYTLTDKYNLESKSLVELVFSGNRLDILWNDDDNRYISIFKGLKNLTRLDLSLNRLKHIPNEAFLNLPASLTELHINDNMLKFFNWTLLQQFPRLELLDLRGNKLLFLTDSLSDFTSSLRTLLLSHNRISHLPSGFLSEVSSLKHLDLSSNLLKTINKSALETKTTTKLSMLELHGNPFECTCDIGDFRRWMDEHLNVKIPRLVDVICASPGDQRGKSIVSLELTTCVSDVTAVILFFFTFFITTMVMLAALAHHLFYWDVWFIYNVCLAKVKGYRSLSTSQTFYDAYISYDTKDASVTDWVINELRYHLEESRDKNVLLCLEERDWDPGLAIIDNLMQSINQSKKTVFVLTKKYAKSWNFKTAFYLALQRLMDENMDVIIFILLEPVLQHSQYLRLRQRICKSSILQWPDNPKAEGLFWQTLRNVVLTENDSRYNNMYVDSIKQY
# Procedure: as §1, §2
hTLR7-wt (LEC) (human TLR7),hTLR8-wt (LEC) (human TLR8),Compound
>50,3.74,"CCCC[C@H](CO)Nc1nc(N)nc2c(OC)cccc12 [Compound 115, (R)-2-((2-amino-8-methoxyquinazolin-4-yl)amino)hexan-1-ol]"
>25,0.46,"CCCC[C@H](CO)Nc1nc(N)nc2c(C)cccc12 [Compound 105, (R)-2-((2-amino-8-methylquinazolin-4-yl)amino)hexan-1-ol]"
1.71,0.09,"CC[C@H](C)[C@H](CO)Nc1nc(N)nc2cccc(F)c12 [Compound 119, (2R,3S)-2-((2-amino-5-fluoroquinazolin-4-yl)amino)-3-methylpentan-1-ol]"
>25,0.11,"CCCC[C@H](CO)Nc1nc(N)nc2c(F)cccc12 [Compound 107, (R)-2-((2-amino-8-fluoroquinazolin-4-yl)amino)hexan-1-ol]"
>25,0.64,"CCCC[C@H](COC(=O)C(C)C)Nc1nc(N)nc2c(C)cccc12 [Compound 109, (R)-2-((2-amino-8-methylquinazolin-4-yl)amino)hexyl isobutyrate]"
>25,3.27,"CCC[C@H](CO)Nc1nc(N)nc2c(F)cccc12 [Compound 108, (R)-2-((2-amino-8-fluoroquinazolin-4-yl)amino)pentan-1-ol]"
>25,2.72,"CCCC[C@H](CO)Nc1nc(N)nc2c(Cl)cccc12 [Compound 106, (R)-2-((2-amino-8-chloroquinazolin-4-yl)amino)hexan-1-ol]"
>100,0.41,"CCCC[C@H](CO)Nc1nc(N)nc2c(F)c(F)ccc12 [Compound 117, (R)-2-((2-amino-7,8-difluoroquinazolin-4-yl)amino)hexan-1-ol]"
>100,0.35,"CCCC[C@H](CO)Nc1nc(N)nc2cccc(C3CC3)c12 [Compound 99, (R)-2-((2-amino-5-cyclopropylquinazolin-4-yl)amino)hexan-1-ol]"
>100,0.14,"CCCC[C@H](CO)Nc1nc(N)nc2cc(C#N)ccc12 [Compound 102, (R)-2-amino-4-((1-hydroxyhexan-2-yl)amino)quinazoline-7-carbonitrile]"
>100,0.57,"CCCC[C@H](CO)Nc1nc(N)nc2cc(C(=O)OC)ccc12 [Compound 116, Methyl (R)-2-amino-4-((1-hydroxyhexan-2-yl)amino)quinazoline-7-carboxylate]"
–,0.04,"CCCC[C@H](CO)Nc1nc(N)nc2cc(F)ccc12 [Compound 111, (R)-2-((2-amino-7-fluoroquinazolin-4-yl)amino)hexan-1-ol]"
>50,0.7,"CSCC[C@H](CO)Nc1nc(N)nc2cccc(F)c12 [Compound 118, (R)-2-((2-amino-5-fluoroquinazolin-4-yl)amino)-4-(methylthio)butan-1-ol]"
>100,–,"CCCC[C@H](CO)Nc1nc(N)nc2cccc(Cl)c12 [Compound 113, (R)-2-((2-amino-5-chloroquinazolin-4-yl)amino)hexan-1-ol]"
>100,0.66,"CCCC[C@H](CO)Nc1nc(N)nc2cccc(C(F)(F)F)c12 [Compound 101, (R)-2-((2-amino-5-(trifluoromethyl)quinazolin-4-yl)amino)hexan-1-ol]"
>100,–,"CCCC[C@H](CO)Nc1nc(N)nc2cccc(C)c12 [Compound 114, (R)-2-((2-amino-5-methylquinazolin-4-yl)amino)hexan-1-ol]"
27.7,0.07,"CCCC[C@H](CO)Nc1nc(N)nc2cccc(F)c12 [Compound 100, (R)-2-((2-amino-5-fluoroquinazolin-4-yl)amino)hexan-1-ol]"
>25,0.38,"CCCC[C@H](CO)Nc1nc(N)nc2cc(-c3nnco3)ccc12 [Compound 103, (R)-2-((2-amino-7-(1,3,4-oxadiazol-2-yl)quinazolin-4-yl)amino)hexan-1-ol]"
>25,5.75,"CCC[C@H](CO)Nc1nc(N)nc2c(C)cccc12 [Compound 104, (R)-2-((2-amino-8-methylquinazolin-4-yl)amino)pentan-1-ol]"
